Measured values taken from EPA's ToxValDB 9.5 (doi:10.2903/j.efsa.2012.2860).

Columns and labels:
[1] = tested on: Colinus virginianus; conditions: for LD50: acute, oral, mortality
[2] = tested on: Rattus norvegicus
[3] = tested on: Anas platyrhynchos; conditions: short-term; oral; feed; mortality
[4] = tested on: Canidae; conditions: chronic; duration: 1 years; oral; Dog Other; histopathology: nonneoplastic

Cc1nn(C)c(F)c1C(=O)Nc1ccccc1C(C)CC(C)C (stereo not given) [Penflufen]
LD50 ([1]; diet): > 1700 mg/kg-day | LD50 [1]: > 4000 mg/kg-day | NOEL ([1]; reproduction developmental): 96 mg/kg-day | NOAEL ([2]; acute, oral, F, clinical signs): 50 mg/kg-day | LD50 ([2]; acute, oral, mortality): > 2000 mg/kg-day | NOAEL ([2]; chronic, duration: 2 years, histopathology: nonneoplastic): 4 mg/kg-day | NOAEL ([2]; reproduction developmental, F, reproduction): 71 mg/kg-day | NOAEL ([2]; reproduction developmental, M, reproduction): 58 mg/kg-day | LD50 [3]: > 2210 mg/kg-day | NOAEL [4]: 7.7 mg/kg-day
